Paper PMC4242290 (Nuclear Receptor Signaling, 2014)
Entries after “also recorded” stand apart in the source; their conditions may differ. Where a name gives a salt, the structure may show the parent alone. *1 amine or outer side, *2 acyl side, *3 side chain or, on linkers, in order; H or OH if unused. Where a SMILES comes first, the peptide text is derived from it. Bridges are numbered along the chain shown (N, C = ends). Roman numbers before positions name the chains, in order. [ ]: non-standard residue; d: D form. Actinocin(9to1) = Cc1c2oc3c(C)ccc(C(=O)[*:1])c3nc-2c(C(=O)[*:2])c(N)c1=O; NMeV = CN[C@H](C(=O)O)C(C)C; Sar = CNCC(=O)O

Assays:
ERβ [1] = biological target: T1, ERβ (Homo sapiens, UniProt Q92731); conditions: cited from earlier work
T1 sequence (Q92731 whole entry): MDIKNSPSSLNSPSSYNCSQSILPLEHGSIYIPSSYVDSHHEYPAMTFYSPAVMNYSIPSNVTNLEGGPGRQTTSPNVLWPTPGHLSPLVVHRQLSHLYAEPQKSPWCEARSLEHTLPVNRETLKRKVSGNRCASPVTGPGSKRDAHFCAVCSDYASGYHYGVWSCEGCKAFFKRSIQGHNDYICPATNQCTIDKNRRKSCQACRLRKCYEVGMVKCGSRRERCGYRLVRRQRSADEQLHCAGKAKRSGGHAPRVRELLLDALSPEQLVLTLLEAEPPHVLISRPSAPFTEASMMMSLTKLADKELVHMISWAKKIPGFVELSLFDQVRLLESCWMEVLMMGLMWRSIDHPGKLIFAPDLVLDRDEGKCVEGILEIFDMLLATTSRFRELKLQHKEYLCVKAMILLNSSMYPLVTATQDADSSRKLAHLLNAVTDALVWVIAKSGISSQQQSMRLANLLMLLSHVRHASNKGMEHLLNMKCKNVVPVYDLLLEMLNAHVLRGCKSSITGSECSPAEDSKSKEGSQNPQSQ

LNCaP cells = assay: LNCaP cell proliferation; type: cell-based; conditions: 1 μM final concentration, 24 h treatment
ERβ [2] = biological target: T1, ERβ; type: binding; conditions: for β-selectivity (fold): IC50 for ERα divided by IC50 for ERβ, from FP
ERβ [3] = biological target: T1, ERβ; conditions: radioligand binding assay; cited from earlier work
ERα [4] = biological target: T2, ERα (Homo sapiens, UniProt P03372); type: binding
T2 sequence (P03372 1-595): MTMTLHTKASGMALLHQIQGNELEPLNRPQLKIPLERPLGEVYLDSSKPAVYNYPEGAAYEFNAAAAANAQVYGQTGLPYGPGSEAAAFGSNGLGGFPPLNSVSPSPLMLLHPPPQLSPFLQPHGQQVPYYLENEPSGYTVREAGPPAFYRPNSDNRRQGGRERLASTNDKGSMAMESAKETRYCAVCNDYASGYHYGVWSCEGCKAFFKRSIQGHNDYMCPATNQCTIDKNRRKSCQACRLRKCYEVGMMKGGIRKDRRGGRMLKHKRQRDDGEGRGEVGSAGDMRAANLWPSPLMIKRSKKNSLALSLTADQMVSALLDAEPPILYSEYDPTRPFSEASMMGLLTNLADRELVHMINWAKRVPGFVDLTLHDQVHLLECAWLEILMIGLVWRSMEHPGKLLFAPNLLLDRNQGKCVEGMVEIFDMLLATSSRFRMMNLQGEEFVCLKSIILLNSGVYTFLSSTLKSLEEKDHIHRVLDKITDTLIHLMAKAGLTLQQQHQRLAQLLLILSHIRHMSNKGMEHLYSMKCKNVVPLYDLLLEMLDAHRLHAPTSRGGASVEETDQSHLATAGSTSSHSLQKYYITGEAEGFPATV

His6-hERβ LBD = His6-hERβ LBD (Homo sapiens, UniProt Q92731); type: binding; conditions: for DSF primary screen: change in melting temperature of ERβ LBD: 500 µM
Chain of His6-hERβ LBD (Q92731 261-530): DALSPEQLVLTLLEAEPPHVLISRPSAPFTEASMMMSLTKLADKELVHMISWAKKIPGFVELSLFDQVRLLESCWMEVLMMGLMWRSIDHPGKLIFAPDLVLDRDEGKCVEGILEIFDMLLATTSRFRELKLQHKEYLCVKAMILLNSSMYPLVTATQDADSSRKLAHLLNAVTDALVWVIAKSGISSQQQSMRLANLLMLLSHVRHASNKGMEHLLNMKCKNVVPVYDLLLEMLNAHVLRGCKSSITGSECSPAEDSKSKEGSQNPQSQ

full length ERβ = full length ERβ (Homo sapiens, UniProt Q92731); assay: ERE-luciferase transactivation in HeLa cells, full length ERβ; type: cell-based
Chain of full length ERβ (Q92731 whole entry): as the sequence (Q92731 whole entry) above

[5] = Phase II double-blind clinical trial; cited from earlier work
GAL4 DBD-ERβ LBD = GAL4 DBD-ERβ LBD (Homo sapiens, UniProt Q92731); assay: GAL4 transactivation assay in HEK293T cells; type: cell-based
Chain of GAL4 DBD-ERβ LBD (Q92731 264-498 limits assumed): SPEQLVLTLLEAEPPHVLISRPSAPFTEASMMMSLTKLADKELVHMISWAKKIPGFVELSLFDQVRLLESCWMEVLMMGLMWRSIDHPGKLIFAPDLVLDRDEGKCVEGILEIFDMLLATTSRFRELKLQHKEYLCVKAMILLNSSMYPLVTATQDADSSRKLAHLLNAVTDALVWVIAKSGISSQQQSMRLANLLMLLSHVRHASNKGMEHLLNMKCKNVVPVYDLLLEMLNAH

ERα [6] = biological target: T2, ERα; conditions: transiently transfected MCF-7 cells; cited from earlier work
ERβ [7] = biological target: T1, ERβ; conditions: transiently transfected MCF-7 cells; cited from earlier work

In the case of `c1ccc2c(Cc3c[nH]c4ccccc34)c[nH]c2c1` [3,3’-diindolylmethane], the “Selectivity of binding to ERβ” value (ERβ [1]) is listed as “did not bind selectively to ERβ”.
In the case of `C[C@]12CC[C@H]3[C@@H](CC=C4C[C@@H](O)CC[C@@]43C)[C@@H]1CC[C@@H]2O` [5-androstenediol], the ER subtype selectivity (ERβ [1]) is listed as “ERβ selective”.
In the case of `C[C@@H](CO)CCC[C@@H](C)[C@H]1CC[C@H]2[C@@H]3CC=C4C[C@@H](O)CC[C@]4(C)[C@H]3CC[C@]12C` [27-hydroxycholesterol, reference compound], the “LNCaP cell proliferation (cell viability)” value (LNCaP cells) is reported as “Suppression of proliferation”.
In the case of `C[C@]12CC[C@H](O)CC1=CC[C@@H]1[C@@H]2CC[C@]2(C)C(=O)CC[C@@H]12` [DHEA, dehydroepiandrosterone], the “Binding to ERβ in FP (competition with fluorescein labeled E2), result in words” value (“Binding to ERβ in FP” for short) (ERβ [2]) is listed as “binders”, the “β-selectivity (fold)” value (ERβ [2]) is listed as “greater than 2 fold” and the “Ki for ERβ compared with ERα” value (ERβ [3]) is listed as “lower for ERβ than ERα”. For the same compound, the “LNCaP cell proliferation (cell viability)” value (LNCaP cells) was “Suppression of proliferation”, the “Binding to ERα in FP (competition with fluorescein labeled E2), result in words” value (shortened to “Binding to ERα in FP”) (ERα [4]) was “binders” and the “Tm of His6-hERβ LBD purification product” value (His6-hERβ LBD) was ~ 55 ºC. For the same compound, the “DSF primary screen: change in melting temperature of ERβ LBD” value (“DSF primary screen: change” below) (His6-hERβ LBD) was “putative binders”, the “Relative transactivation activity, full length ERβ” value (full length ERβ; 1 μM final concentration) was “greater capacity for ERβ activation than the selective partial agonist 27-hydroxycholesterol” and the “ER subtype selectivity of transactivation (ERβ versus ERα)” value (full length ERβ; full length ERs, 1 μM) was “strong ERβ selectivity”.
In the case of `C=Cc1cc(O)cc2nc(-c3ccc(O)c(F)c3)oc12` [ERB-041], the “Efficacy in rheumatoid arthritis” value [5] is listed as “failed to demonstrate efficacy”.
For `CCCCCC[C@H]1C(=O)O[C@H](C)[C@H](NC(=O)c2cccc(NC=O)c2O)C(=O)O[C@@H](C)[C@@H]1OC(=O)CC(C)C` [antimycin A], the “DSF primary screen: change” value (His6-hERβ LBD) was “elicited changes in the protein melting temperature”.
For `CCN(CC)CCOc1ccc(C(=C(Cl)c2ccccc2)c2ccccc2)cc1` [clomiphene citrate], the “Binding to ERβ in FP” value (ERβ [2]) was “binders”, the “DSF primary screen: change” value (His6-hERβ LBD) was “putative binders” and the IC50 (GAL4 DBD-ERβ LBD) was 221 nM.
With `Cc1c2oc3c(C)ccc(C(=O)N[C@@H]4C(=O)N[C@H](C(C)C)C(=O)N5CCC[C@H]5C(=O)N(C)CC(=O)N(C)[C@@H](C(C)C)C(=O)O[C@@H]4C)c3nc-2c(C(=O)N[C@@H]2C(=O)N[C@H](C(C)C)C(=O)N3CCC[C@H]3C(=O)N(C)CC(=O)N(C)[C@@H](C(C)C)C(=O)O[C@@H]2C)c(N)c1=O` [dactinomycin] (I: T[dV]P[Sar][NMeV] / II: T[dV]P[Sar][NMeV]; ester I:1-I:C, II:1-II:C; linker I:N-II:N via Actinocin(9to1)) the “DSF primary screen: change” value (His6-hERβ LBD) was “elicited changes in the protein melting temperature”.
With `CC/C(=C(/CC)c1ccc(O)cc1)c1ccc(O)cc1` [diethylstilbestrol, reference compound] the “Binding to ERβ in FP” value (ERβ [2]) was “binders”.
With `C[C@]12CC[C@H]3C(=CCc4cc(O)ccc43)[C@@H]1CCC2=O` [equilin] the “DSF primary screen: change” value (His6-hERβ LBD) was “putative binders”.
For `C[C@]12CC[C@@H]3c4ccc(O)cc4CC[C@H]3[C@@H]1C[C@@H](O)[C@@H]2O` [estriol], the “Binding to ERβ in FP” value (ERβ [2]) was “binders; also recorded: greater relative affinity than estrone”.
With `C#C[C@]1(O)CC[C@H]2[C@@H]3CCc4cc(O)ccc4[C@H]3CC[C@@]21C` [ethinyl estradiol] the “DSF primary screen: change” value (His6-hERβ LBD) was “putative binders”.
With `CC[C@]1(O)CC[C@H]2[C@@H]3CCC4=CCCC[C@@H]4[C@H]3CC[C@@]21C` [ethylestrenol] the “DSF primary screen: change” value (His6-hERβ LBD) was “putative binders”.
With `CCOC(=O)C1=C(C)NC(C)=C(C(=O)OC)C1c1cccc(Cl)c1Cl` (centres unmarked) [felodipine] the “DSF primary screen: change” value (His6-hERβ LBD) was “showed up as hits in the primary assay”.
In the case of `CC[C@H](c1ccc(O)cc1)[C@@H](CC)c1ccc(O)cc1` [hexestrol, reference compound], the “Binding to ERβ in FP” value (ERβ [2]) is given as “binders”, the “Ki for ERβ compared with ERα” value (ERβ [3]) is given as “the same for both isoforms” and the “Binding to ERα in FP” value (ERα [4]) is given as “binders”. For the same compound, the “DSF primary screen: change” value (His6-hERβ LBD) was “putative binders”.
For `O=c1cc(-c2ccc(O)c(O)c2)oc2cc(O)cc(O)c12` [luteolin], the “Activation of ERα” value (ERα [6]) is listed as “no effect on ERα”, the “β-selectivity (fold)” value (ERβ [2]) is listed as “greater than 2 fold” and the “Activation of ERβ” value (ERβ [7]) is listed as “very slight effect on ERβ”.
With `O=C1C[C@@H](c2ccc(O)cc2)Oc2cc(O)cc(O)c21` [naringenin] the “β-selectivity (fold)” value (ERβ [2]) was “greater than 2 fold” and the “DSF primary screen: change” value (His6-hERβ LBD) was “putative binders”.
With `C[C@@H]1[C@H](O)[C@@H](C)/C=C/C=C/CC/C=C/C=C/C=C/C=C/C(O[C@H]2O[C@H](C)[C@@H](O)[C@H](N)[C@@H]2O)CC2O[C@](O)(CC(O)C(O)CCC(O)CC(O)CC(O)CC(=O)O[C@H]1C)CC(O)C2C(=O)O` (some centres unmarked) [nystatin] the “DSF primary screen: change” value (His6-hERβ LBD) was “elicited changes in the protein melting temperature”.
In the case of `COc1cc(/C=C/c2ccc(O)cc2)cc(OC)c1` [pterostilbene], the “DSF primary screen: change” value (His6-hERβ LBD) is reported as “putative binders”.
With `C[C@H]1CCC[C@H](O)CCCCCc2cc(O)cc(O)c2C(=O)O1` [zeranol] the “Binding to ERα in FP” value (ERα [4]) was “binders”.
For goserelin acetate, the “DSF primary screen: change” value (His6-hERβ LBD) was “elicited changes in the protein melting temperature”.
For medicarpin, the “β-selectivity (fold)” value (ERβ [2]) was “greater than 2 fold”.
